Measurements from PubChem BioAssay AID2060882 (Molecular Pharmacology Branch, DTP, NCI, 2025).
Each block holds one compound with its values, some of them ahead of it.

System: 898857-211-R-J1-PDC complex spheroids, growth % test/control
Assay: Anticancer human tumor 898857-211-R-J1-PDC patient-derived melanoma cell line growth inhibition [RAS]
Settings: for IC50: curve of first compound; for viability, T/C: stronger effect = lower value
Summary of the method: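 Multi-cell-type spheroids: tumor cells plus HUVEC endothelial cells and mesenchymal stem cells. RAS-pathway inhibitors were combined with targeted agents, each dosed in half-log steps down from clinical Cmax, or from 10 microM when Cmax was unknown.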

[1] = second compound 0.00316 µM, first compound 0.0316 µM
[2] = second compound 0.00316 µM, first compound 0.1 µM
[3] = second compound 0.00316 µM, first compound 0.316 µM
[4] = second compound 0.00316 µM, first compound 1 µM
[5] = second compound 0.00316 µM, first compound 3.16 µM
[6] = second compound 0.00316 µM, first compound 10 µM
[7] = second compound 0.01 µM, first compound 0.0316 µM
[8] = second compound 0.01 µM, first compound 0.1 µM
[9] = second compound 0.01 µM, first compound 0.316 µM
[10] = second compound 0.01 µM, first compound 1 µM
[11] = second compound 0.01 µM, first compound 3.16 µM
[12] = second compound 0.01 µM, first compound 10 µM
[13] = second compound 0.0316 µM, first compound 0.0316 µM
[14] = second compound 0.0316 µM, first compound 0.1 µM
[15] = second compound 0.0316 µM, first compound 0.316 µM
[16] = second compound 0.0316 µM, first compound 1 µM
[17] = second compound 0.0316 µM, first compound 3.16 µM
[18] = second compound 0.0316 µM, first compound 10 µM
[19] = second compound 0.1 µM, first compound 0.0316 µM
[20] = second compound 0.1 µM, first compound 0.1 µM
[21] = second compound 0.1 µM, first compound 0.316 µM
[22] = second compound 0.1 µM, first compound 1 µM
[23] = second compound 0.1 µM, first compound 3.16 µM
[24] = second compound 0.1 µM, first compound 10 µM
[25] = second compound 0.316 µM, first compound 0.0316 µM
[26] = second compound 0.316 µM, first compound 0.1 µM
[27] = second compound 0.316 µM, first compound 0.316 µM
[28] = second compound 0.316 µM, first compound 1 µM
[29] = second compound 0.316 µM, first compound 3.16 µM
[30] = second compound 0.316 µM, first compound 10 µM
[31] = second compound 1 µM, first compound 0.0316 µM
[32] = second compound 1 µM, first compound 0.1 µM
[33] = second compound 1 µM, first compound 0.316 µM
[34] = second compound 1 µM, first compound 1 µM
[35] = second compound 1 µM, first compound 3.16 µM
[36] = second compound 1 µM, first compound 10 µM
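Note: spheroids exposed to compound for seven days before readout.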
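Throughout, for viability, T/C: 100% = DMSO vehicle control wells.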

IC50 (second compound 0.00316 µM): 0.806 µM
IC50 (second compound 0.01 µM): 0.851 µM
IC50 (second compound 0.0316 µM): 1.13 µM
IC50 (second compound 0.1 µM): 1.22 µM
IC50 (second compound 0.316 µM): 1.3 µM
IC50 (second compound 1 µM): 1.16 µM
Compound: CCC(CC)c1cc(NC2CCC(N)C2)n2nccc2n1 (stereo not drawn) + C=CC(=O)N1CCN(c2nc(OCC3CCCN3C)nc3c(F)c(-c4nc(N)cc(C)c4C(F)(F)F)c(Cl)cc23)C(C)C1
viability, T/C [1]: 119%
viability, T/C [2]: 97.5%
viability, T/C [3]: 81.5%
viability, T/C [4]: 49.1%
viability, T/C [5]: 1.15%
viability, T/C [6]: 0.2%
viability, T/C [7]: 114%
viability, T/C [8]: 97.8%
viability, T/C [9]: 81.7%
viability, T/C [10]: 51%
viability, T/C [11]: 0.97%
viability, T/C [12]: 0.25%
viability, T/C [13]: 104%
viability, T/C [14]: 104%
viability, T/C [15]: 102%
viability, T/C [16]: 56%
viability, T/C [17]: 1.12%
viability, T/C [18]: 0.25%
viability, T/C [19]: 95.5%
viability, T/C [20]: 110%
viability, T/C [21]: 101%
viability, T/C [22]: 60%
viability, T/C [23]: 1.01%
viability, T/C [24]: 0.21%
viability, T/C [25]: 123%
viability, T/C [26]: 119%
viability, T/C [27]: 104%
viability, T/C [28]: 66.3%
viability, T/C [29]: 1.11%
viability, T/C [30]: 0.26%
viability, T/C [31]: 120%
viability, T/C [32]: 117%
viability, T/C [33]: 101%
viability, T/C [34]: 59.7%
viability, T/C [35]: 0.94%
viability, T/C [36]: 0.24%

IC50 (second compound 0.0316 µM): < 0.0316 µM
IC50 (second compound 0.1 µM): < 0.0316 µM
IC50 (second compound 0.316 µM): < 0.0316 µM
IC50 (second compound 1 µM): < 0.0316 µM
IC50 (second compound 3.16 µM): < 0.0316 µM
IC50 (second compound 10 µM): < 0.0316 µM
Compound: CC(=O)OC12COC1CC(O)C1(C)C(=O)C(O)C3=C(C)C(OC(=O)C(O)C(NC(=O)OC(C)(C)C)c4ccccc4)CC(O)(C(OC(=O)c4ccccc4)C21)C3(C)C (stereo not drawn) + C#Cc1c(F)ccc2cc(O)cc(-c3ncc4c(N5CC6CCC(C5)N6)nc(OCC56CCCN5CC(F)C6)nc4c3F)c12
viability, T/C [13]: 12%
viability, T/C [14]: 12.8%
viability, T/C [15]: 12.1%
viability, T/C [16]: 16%
viability, T/C [17]: 26.6%
viability, T/C [18]: 27.4%
viability, T/C [19]: 13%
viability, T/C [20]: 12.1%
viability, T/C [21]: 14.1%
viability, T/C [22]: 17.1%
viability, T/C [23]: 25.5%
viability, T/C [24]: 21.1%
viability, T/C [25]: 16.4%
viability, T/C [26]: 15.8%
viability, T/C [27]: 12.1%
viability, T/C [28]: 17.7%
viability, T/C [29]: 25.2%
viability, T/C [30]: 21.3%
viability, T/C [31]: 14.2%
viability, T/C [32]: 12.7%
viability, T/C [33]: 12.8%
viability, T/C [34]: 16.5%
viability, T/C [35]: 15.7%
viability, T/C [36]: 24.7%
viability, T/C (second compound 3.16 µM, first compound 0.0316 µM): 13.3%
viability, T/C (second compound 3.16 µM, first compound 0.1 µM): 16.7%
viability, T/C (second compound 3.16 µM, first compound 0.316 µM): 16.7%
viability, T/C (second compound 3.16 µM, first compound 1 µM): 20.4%
viability, T/C (second compound 3.16 µM, first compound 3.16 µM): 24.6%
viability, T/C (second compound 3.16 µM, first compound 10 µM): 27.6%
viability, T/C (second compound 10 µM, first compound 0.0316 µM): 7.03%
viability, T/C (second compound 10 µM, first compound 0.1 µM): 9%
viability, T/C (second compound 10 µM, first compound 0.316 µM): 5.98%
viability, T/C (second compound 10 µM, first compound 1 µM): 9.12%
viability, T/C (second compound 10 µM, first compound 3.16 µM): 7.68%
viability, T/C (second compound 10 µM, first compound 10 µM): 7.34%

IC50 (second compound 0.000949 µM): > 10 µM
IC50 (second compound 0.003 µM): > 10 µM
IC50 (second compound 0.00949 µM): > 10 µM
IC50 (second compound 0.03 µM): > 10 µM
IC50 (second compound 0.0949 µM): > 10 µM
IC50 (second compound 0.3 µM): > 10 µM
Compound: Cc1nc(N2CCC3(CC2)COC(C)C3N)c(CO)nc1Sc1ccnc(N)c1Cl (stereo not drawn) + CCn1c(-c2cc(N3CCN(C)CC3)cnc2C(C)OC)c2c3cc(ccc31)-c1csc(n1)CC(NC(=O)C1CC1C)C(=O)N1CCCC(N1)C(=O)OCC(C)(C)C2
viability, T/C (second compound 0.000949 µM, first compound 0.0316 µM): 99.6%
viability, T/C (second compound 0.000949 µM, first compound 0.1 µM): 98%
viability, T/C (second compound 0.000949 µM, first compound 0.316 µM): 93.6%
viability, T/C (second compound 0.000949 µM, first compound 1 µM): 94.2%
viability, T/C (second compound 0.000949 µM, first compound 3.16 µM): 94.3%
viability, T/C (second compound 0.000949 µM, first compound 10 µM): 86.1%
viability, T/C (second compound 0.003 µM, first compound 0.0316 µM): 96.1%
viability, T/C (second compound 0.003 µM, first compound 0.1 µM): 92.2%
viability, T/C (second compound 0.003 µM, first compound 0.316 µM): 105%
viability, T/C (second compound 0.003 µM, first compound 1 µM): 96.4%
viability, T/C (second compound 0.003 µM, first compound 3.16 µM): 92.2%
viability, T/C (second compound 0.003 µM, first compound 10 µM): 85.5%
viability, T/C (second compound 0.00949 µM, first compound 0.0316 µM): 96%
viability, T/C (second compound 0.00949 µM, first compound 0.1 µM): 110%
viability, T/C (second compound 0.00949 µM, first compound 0.316 µM): 112%
viability, T/C (second compound 0.00949 µM, first compound 1 µM): 103%
viability, T/C (second compound 0.00949 µM, first compound 3.16 µM): 96.9%
viability, T/C (second compound 0.00949 µM, first compound 10 µM): 77.7%
viability, T/C (second compound 0.03 µM, first compound 0.0316 µM): 109%
viability, T/C (second compound 0.03 µM, first compound 0.1 µM): 107%
viability, T/C (second compound 0.03 µM, first compound 0.316 µM): 106%
viability, T/C (second compound 0.03 µM, first compound 1 µM): 97.6%
viability, T/C (second compound 0.03 µM, first compound 3.16 µM): 99.5%
viability, T/C (second compound 0.03 µM, first compound 10 µM): 74.8%
viability, T/C (second compound 0.0949 µM, first compound 0.0316 µM): 115%
viability, T/C (second compound 0.0949 µM, first compound 0.1 µM): 116%
viability, T/C (second compound 0.0949 µM, first compound 0.316 µM): 110%
viability, T/C (second compound 0.0949 µM, first compound 1 µM): 107%
viability, T/C (second compound 0.0949 µM, first compound 3.16 µM): 107%
viability, T/C (second compound 0.0949 µM, first compound 10 µM): 84.7%
viability, T/C (second compound 0.3 µM, first compound 0.0316 µM): 90.7%
viability, T/C (second compound 0.3 µM, first compound 0.1 µM): 105%
viability, T/C (second compound 0.3 µM, first compound 0.316 µM): 99.2%
viability, T/C (second compound 0.3 µM, first compound 1 µM): 111%
viability, T/C (second compound 0.3 µM, first compound 3.16 µM): 104%
viability, T/C (second compound 0.3 µM, first compound 10 µM): 76.9%

IC50 (second compound 0.00316 µM): 0.228 µM
IC50 (second compound 0.01 µM): 0.3 µM
IC50 (second compound 0.0316 µM): 0.252 µM
IC50 (second compound 0.1 µM): 0.286 µM
IC50 (second compound 0.316 µM): 0.315 µM
IC50 (second compound 1 µM): 0.23 µM
Compound: CC1(O)CCCC1n1c(=O)c(C(F)F)cc2cnc(NC3CCN(S(C)(=O)=O)CC3)nc21 (stereo not drawn) + C=CC(=O)N1CCN(c2nc(OCC3CCCN3C)nc3c(F)c(-c4nc(N)cc(C)c4C(F)(F)F)c(Cl)cc23)C(C)C1
viability, T/C [1]: 103%
viability, T/C [2]: 57.7%
viability, T/C [3]: 45.6%
viability, T/C [4]: 43.5%
viability, T/C [5]: 47.1%
viability, T/C [6]: 19.7%
viability, T/C [7]: 75.3%
viability, T/C [8]: 61%
viability, T/C [9]: 39%
viability, T/C [10]: 44.9%
viability, T/C [11]: 39.7%
viability, T/C [12]: 17.4%
viability, T/C [13]: 87.6%
viability, T/C [14]: 57.1%
viability, T/C [15]: 42.4%
viability, T/C [16]: 45.6%
viability, T/C [17]: 43.7%
viability, T/C [18]: 19.3%
viability, T/C [19]: 92.1%
viability, T/C [20]: 55.5%
viability, T/C [21]: 47.9%
viability, T/C [22]: 46.1%
viability, T/C [23]: 47.7%
viability, T/C [24]: 18.6%
viability, T/C [25]: 109%
viability, T/C [26]: 67%
viability, T/C [27]: 46%
viability, T/C [28]: 44.7%
viability, T/C [29]: 45.2%
viability, T/C [30]: 17.5%
viability, T/C [31]: 115%
viability, T/C [32]: 59.5%
viability, T/C [33]: 46.3%
viability, T/C [34]: 36%
viability, T/C [35]: 42.8%
viability, T/C [36]: 10.9%
